In PubChem BioAssay (NCI) one finds TGI and GI50 data, which are given here for 16 compounds.

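Interpolation was linear, between the two tested concentrations surrounding the appropriate level; five concentrations were tested over 48 hours in 96-well plates. GI50 is the concentration that inhibits growth by half. TGI is the concentration that stops growth completely.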

Test systems include XF 498 CNS; OVCAR-5 ovarian; 786-0 renal; HT29 colon; SR leukemia; COLO 205 colon; ACHN renal; DLD-1 colon; SNB-75 CNS; DU-145 prostate.
What all share (experiment): inhibition of tumour cell growth, NCI panel, 48 h

For the compound `CNc1ccc([N+](=O)[O-])c2c(NCCCN(C)C)ccnc12`, the TGI in the assay with XF 498 CNS, in the assay on OVCAR-5 ovarian, in the assay with 786-0 renal, in the assay on HT29 colon, in the assay on SR leukemia and in the assay with COLO 205 colon was over 100 µM each time. For the same compound, the TGI in the assay with ACHN renal was over 100 µM.
Take `CC(C)CN1CC(C)C(=O)NC1=O` (stereo not given): the TGI in the assay with XF 498 CNS, in the assay on OVCAR-5 ovarian, in the assay on 786-0 renal, with HT29 colon, in the assay on SR leukemia and in the assay on COLO 205 colon was over 100 µM in each case. Besides, the TGI in the assay with ACHN renal and with DLD-1 colon was over 100 µM in each case.
With `CN(C)c1ccc(Nc2c3ccccc3nc3cc(NC(=O)CCN4CCCC4)ccc23)cc1`, the GI50 in the assay with SNB-75 CNS is 0.381 µM; in the assay on DU-145 prostate, 0.155 µM; in the assay with OVCAR-5 ovarian, 0.89 µM; with 786-0 renal it was 0.343 µM; with HT29 colon it was 0.475 µM; in the assay on SR leukemia, 0.0421 µM. Further, the GI50 is 0.309 µM in the assay on COLO 205 colon and 0.321 µM with ACHN renal. The TGI in the assay with SNB-75 CNS came to 1.72 µM; with DU-145 prostate, 1.19 µM; with OVCAR-5 ovarian, 2.74 µM; with 786-0 renal, 1.38 µM; in the assay with HT29 colon, 2.06 µM; in the assay with SR leukemia, 1.24 µM. The TGI in the assay with COLO 205 colon turned out to be 1.76 µM; with ACHN renal, 1.12 µM.
For `COc1cc2cnc(-c3ccccc3)cc2cc1OC`, the TGI with SNB-75 CNS was over 100 µM; with DU-145 prostate it was over 100 µM; in the assay with OVCAR-5 ovarian it was over 100 µM; in the assay with 786-0 renal, over 100 µM; with HT29 colon it was 45.5 µM; in the assay with SR leukemia, 45.8 µM. In addition, the TGI in the assay with COLO 205 colon came out at 58.5 µM; with ACHN renal it was 73.4 µM.
For the compound `C[C@@H](Oc1cc(-n2cnc3ccc(OCC4CCN(C)CC4)cc32)sc1C(N)=O)c1ccccc1Cl`, the GI50 is 0.0898 µM with SNB-75 CNS; 0.0528 µM with DU-145 prostate; 0.113 µM in the assay with OVCAR-5 ovarian; 0.315 µM in the assay with 786-0 renal; 0.0108 µM with HT29 colon; 0.0448 µM in the assay on SR leukemia. Also, the GI50 in the assay on COLO 205 colon is 0.0165 µM; in the assay on ACHN renal it was 0.368 µM. The TGI in the assay on SNB-75 CNS was found to be 1.81 µM; in the assay with DU-145 prostate, 0.141 µM; in the assay on OVCAR-5 ovarian, 4.19 µM; with 786-0 renal, 3.92 µM; in the assay on HT29 colon, 2.68 µM; in the assay with SR leukemia, 0.697 µM. The TGI with COLO 205 colon stood at 0.631 µM; in the assay with ACHN renal it was 5.04 µM.
Take `CN(C)CC1CCCCCC(Br)C1=O` (stereo not given): the TGI with SNB-75 CNS is over 100 µM; in the assay with DU-145 prostate, 25 µM; with OVCAR-5 ovarian it was over 52.2 µM; with 786-0 renal it was 8.62 µM; in the assay on HT29 colon, 50.3 µM; with SR leukemia it was 7.14 µM. In addition, the TGI with COLO 205 colon came out at 31.6 µM; in the assay with ACHN renal, 19.6 µM.
On to `COC1C(CO)OC(n2c3c(Cl)cccc3c3c4c(c5c6cccc(Cl)c6[nH]c5c32)C(=O)NC4=O)C(O)C1O` (stereo not given), for which the TGI with SNB-75 CNS is 5.87 µM; in the assay on XF 498 CNS it was 0.931 µM; with DU-145 prostate, 3.29 µM; in the assay with OVCAR-5 ovarian it was over 41.9 µM; in the assay on 786-0 renal it was 2.32 µM; in the assay on HT29 colon, over 47.3 µM. In addition, the TGI in the assay on COLO 205 colon is 61.4 µM; in the assay on ACHN renal it was 1.47 µM; with DLD-1 colon, over 100 µM.
As for `COc1cnc2c(c1)C(=O)c1c-2n(CCCNCCN2CCOCC2)c(=O)c2cc([N+](=O)[O-])ccc12`, the GI50 with SNB-75 CNS was 0.265 µM; in the assay on DU-145 prostate, 0.0608 µM; in the assay on OVCAR-5 ovarian, 0.448 µM; with 786-0 renal, 0.224 µM; with HT29 colon, 0.154 µM; in the assay with SR leukemia it was 0.0151 µM. The GI50 was 0.297 µM with COLO 205 colon and 0.0365 µM in the assay on ACHN renal. In addition, the TGI in the assay with SNB-75 CNS was found to be 10.7 µM; in the assay with DU-145 prostate, 1.12 µM; with OVCAR-5 ovarian, 3.87 µM; in the assay with 786-0 renal, 0.765 µM; in the assay on HT29 colon, 1.31 µM; with SR leukemia it was 1.02 µM. Moreover, the TGI in the assay with COLO 205 colon was determined as 3.07 µM; in the assay with ACHN renal, 0.201 µM.
With `CN(C(=O)C12C3C4C1C1C2C3C41C(O)C(C)(C)C)C(C)(C)C` (stereo not given), the TGI with SNB-75 CNS, in the assay on XF 498 CNS, with OVCAR-5 ovarian, with 786-0 renal, in the assay with HT29 colon and with COLO 205 colon was over 100 µM in each case. The TGI with ACHN renal and in the assay with DLD-1 colon was over 100 µM throughout.
As for `Nc1nc(-c2ccc(Cl)cc2)cc(-c2ccc(Cl)cc2)c1-c1nc2ccccc2o1`, the GI50 was 15 µM with SNB-75 CNS; 17.2 µM with DU-145 prostate; 20.7 µM in the assay with OVCAR-5 ovarian; 17.9 µM with 786-0 renal; 11.1 µM in the assay with HT29 colon; 14.3 µM with SR leukemia. Also, the GI50 was 21 µM in the assay with COLO 205 colon and 17.4 µM with ACHN renal. For the same compound, the TGI in the assay on SNB-75 CNS stood at 30 µM; with DU-145 prostate, 36.6 µM; in the assay on OVCAR-5 ovarian, 39.1 µM; in the assay with 786-0 renal it was 36.4 µM; in the assay with HT29 colon, 36.1 µM; with SR leukemia it was 30.5 µM. The TGI in the assay with COLO 205 colon turned out to be 39.5 µM; in the assay with ACHN renal, 33.2 µM.
In the case of `O=C1/C(=C/c2ccc(Cl)cc2)CN(C(=O)CCN2CCC(=NO)CC2)C/C1=C\c1ccc(Cl)cc1`, the GI50 with SNB-75 CNS was 1.31 µM; in the assay on DU-145 prostate, 1.28 µM; with OVCAR-5 ovarian, 1.36 µM; with 786-0 renal, 0.786 µM; in the assay on HT29 colon, 0.338 µM; with SR leukemia, 0.114 µM. Besides, the GI50 is 0.345 µM in the assay on COLO 205 colon and 0.557 µM in the assay on ACHN renal. In addition, the TGI stood at 2.61 µM with SNB-75 CNS; 2.6 µM with DU-145 prostate; 2.85 µM with OVCAR-5 ovarian; 2.12 µM with 786-0 renal; 1.31 µM in the assay with HT29 colon; 1.32 µM with COLO 205 colon. The TGI in the assay on ACHN renal was 1.56 µM.
Regarding `Cc1ccc(-c2cc(-c3ccc(C)cc3)nc(N3CCN(CCNc4ccnc5cc(Cl)ccc45)CC3)n2)cc1`, the GI50 with SNB-75 CNS was 0.949 µM; in the assay with DU-145 prostate, 2.06 µM; in the assay on OVCAR-5 ovarian it was 3.84 µM; in the assay on 786-0 renal it was 1.81 µM; with HT29 colon, 1.51 µM; in the assay with SR leukemia, 0.675 µM. In addition, the GI50 was 1.71 µM in the assay on COLO 205 colon and 6.18 µM in the assay on ACHN renal. In addition, the TGI with SNB-75 CNS is 2.23 µM; in the assay on DU-145 prostate, 8.5 µM; in the assay on OVCAR-5 ovarian, 17.6 µM; in the assay on 786-0 renal, 6.95 µM; with HT29 colon it was 7.26 µM; in the assay on SR leukemia it was over 50 µM. Further, the TGI in the assay with COLO 205 colon was determined as 8.76 µM; with ACHN renal it was 14.5 µM.
`O=C(c1ccco1)c1nc2cc(C(F)(F)F)ccc2[n+]([O-])c1C(F)(F)F`: the GI50 with SNB-75 CNS is 23 µM; in the assay with DU-145 prostate, 61.7 µM; in the assay on OVCAR-5 ovarian, 31.5 µM; in the assay on 786-0 renal it was 83.6 µM; with HT29 colon, 33.6 µM; in the assay on SR leukemia it was 41.4 µM. Moreover, the GI50 is 43.8 µM with COLO 205 colon and 47.1 µM in the assay on ACHN renal. Besides, the TGI is 90.9 µM in the assay on SNB-75 CNS; over 100 µM in the assay on DU-145 prostate; over 100 µM with OVCAR-5 ovarian; over 100 µM with 786-0 renal; over 100 µM in the assay with HT29 colon; over 100 µM with SR leukemia. Moreover, the TGI with COLO 205 colon and with ACHN renal was over 100 µM throughout.
Consider `CCCCCCCCCCC[C@@H](C[C@H]1OC(=O)[C@H]1CCCCCC)OC(=O)[C@@H](CC(C)C)NC=O`, for which the GI50 in the assay on SNB-75 CNS was 2.55 µM; with DU-145 prostate, 16.7 µM; in the assay with OVCAR-5 ovarian it was 21.7 µM; with 786-0 renal, 2.42 µM; in the assay with HT29 colon it was 3.18 µM; in the assay on SR leukemia, 3.52 µM. Further, the GI50 was 11.6 µM in the assay with COLO 205 colon and 8.63 µM in the assay with ACHN renal. For the same compound, the TGI was 12.6 µM in the assay with SNB-75 CNS; over 100 µM in the assay on DU-145 prostate; over 100 µM in the assay on OVCAR-5 ovarian; 18.7 µM in the assay with 786-0 renal; 35.6 µM in the assay with HT29 colon; 42.9 µM in the assay on SR leukemia. Further, the TGI is 32.1 µM in the assay with COLO 205 colon and over 100 µM in the assay with ACHN renal.
Consider `COc1ccc2c(c1)[nH]c(=O)c1c3cc(OC)c(OC)cc3cn21`, for which the GI50 with SNB-75 CNS was under 0.01 µM; in the assay on DU-145 prostate, under 0.01 µM; with OVCAR-5 ovarian, 0.0411 µM; in the assay with 786-0 renal, 0.0386 µM; in the assay on HT29 colon it was under 0.01 µM; in the assay on SR leukemia, under 0.01 µM. For the same compound, the GI50 in the assay on COLO 205 colon and in the assay on ACHN renal was under 0.01 µM each time. Besides, the TGI came to 19.7 µM with SNB-75 CNS; 0.0594 µM in the assay with DU-145 prostate; 18.1 µM in the assay on OVCAR-5 ovarian; 15.3 µM in the assay on 786-0 renal; 0.0961 µM with SR leukemia; 0.0635 µM in the assay with COLO 205 colon. The TGI with ACHN renal amounted to 16.1 µM.
With `Cc1ccc2nc3c(n2c1)C(=O)C(=O)c1ccccc1-3`, the GI50 with SNB-75 CNS was 0.266 µM; with DU-145 prostate, 0.288 µM; in the assay on OVCAR-5 ovarian, 0.202 µM; in the assay on 786-0 renal, 0.527 µM; in the assay on HT29 colon, 1.74 µM; with SR leukemia, 0.264 µM. Also, the GI50 in the assay on COLO 205 colon is 1.91 µM; in the assay on ACHN renal, 0.269 µM. In addition, the TGI in the assay on SNB-75 CNS was found to be 0.618 µM; with DU-145 prostate it was 1.12 µM; with OVCAR-5 ovarian, 0.391 µM; with 786-0 renal, 1.15 µM; in the assay with SR leukemia, 3.33 µM; with COLO 205 colon it was 3.76 µM. In the assay on ACHN renal, this compound gave a TGI of 0.88 µM.
